This is an account of results in patent US6544727B1, “Methods and devices for the removal of psoralens from blood products” (Cerus Corporation, priority 1995, dated 2003).

Entries after “also recorded” stand apart in the source; their conditions may differ. Like-named read-outs stand apart in the source and are kept apart here. Bounds are passed on as bounds.

Data set [1] concerns Salmonella tester strain TA98. The experiment in a line: Ames test, strain TA98. The protocol:
In this example the compounds of the present invention are tested for their dark mutagenicity using an Ames assay. The procedures used for the Salmonella mutagenicity test as described in detail by Maron and Ames were followed exactly. Maron, D. M. and B. N. Ames, Mutation Research 113: 173 ( 1983). A brief description for each procedure is given here. The tester strains TA97a, TA98, TA100, TA102, TA1537 and TA1538 were obtained from Dr. Ames. TA97a, TA98, TA1537 and TA1538 are frameshift tester strains. TA100 and TA102 are base-substitution tester strains. Upon receipt each strain was cultured under a variety of conditions to confirm the genotypes specific to the strains.
The first tests done with the strains were to determine the range of spontaneous reversion for each of the strains. With each mutagenicity experiment the spontaneous reversion of the tester strains to histidine independence was measured and expressed as the number of spontaneous revertants per plate. This served as the background controls.
For all experiments, the pre-incubation procedure was used. In this procedure one vial of each tester strain was thawed and 20 μL of this culture was added to 6 mL of Oxoid Nutrient Broth #2. This solution was allowed to shake for 10 hours at 37° C. In the pre-incubation procedure, 0.1 mL of this overnight culture was added to each of the required number of sterile test tubes. To half of the tubes 0.5 mL of a 10% S-9 solution containing Aroclor 1254 induced rat liver extract (Molecular Toxicology Inc., Annapolis, Md.), and MgCl2, KCl, glucose-6-phosphate, NADP, and sodium phosphate buffer (Sigma, St. Louis, Mo.) were added. To the other half of the tubes 0.5 mL of 0.2M sodium phospate buffer, pH 7.4, was used in place of the S-9 mixture (the—S9samples). […] The 0.7 mL mixture was vortexed and then pre-incubated while shaking for 20 minutes at 37° C. After shaking, 2 mL of molten top agar supplemented with histidine and biotin were added to the 0.7 mL mixture and immediately poured onto a minimal glucose agar plate (volume of base agar was 20 mL). The top agar was allowed 30 minutes to solidify and then the plates were inverted and incubated for 44 hours at 37° C. After incubation the number of revertant colonies on each plate were counted. […] (“n” represents the number of replicates performed for each data point.)

In data set [2] the test system is Salmonella typhimurium tester strains. The experiment in a line: Ames Salmonella dark mutagenicity test, overall assessment. Format: cell-based. The note with it: two-fold or greater increase in revertants above background and dose dependence. The protocol: A brief description for each procedure is given here. […] TA97a, TA98, TA1537 and TA1538 are frameshift tester strains. TA100 and TA102 are base-substitution tester strains.
This served as the background controls.
For all experiments, the pre-incubation procedure was used.

Data set [3] deals with HIV-1. As to conditions: for HIV Log Kill: 1 minute irradiation.
For data set [4], the system named is mouse reticulocytes. As to conditions: for PCE/RBC (%): tail vein, once per day for four days, blood on day 5; for bone marrow toxicity and micronucleus formation on dose escalation (in words): increased dose levels in male Balb/c mice. The protocol:
Male Balb/c mice were then injected with 0.1 ml of a compound solution via the tail vein. At least 3 mice were injected per dose level. Saline only was used as a negative control. For a positive control, cyclophosphamide (cycloPP) was administered at a dose of 30 mg/kg. In the experimental group, the injections were repeated once per day for four days. In the positive control group, the sample was administered only once, on day three. On day 5, several microliters of blood were withdrawn from each subject and smeared on a glass slide. Cells were fixed in absolute methanol and stored in a slide rack.
For analysis, cells were stained with acridine orange and visualized under a fluorescence microscope by counting: (i) the number of reticulocytes per 5000 erythrocytes; and (ii) the number of micronucleated reticulocytes per 1000 reticulocytes. Reticulocytes were distinguished by their red fluorescence due to the presence of RNA. Micronuclei were distinguished by their green fluorescence due to the presence of DNA. The percentage of reticulocytes (%PCE) was then calculated. A decrease in the frequency of […] in the percentage of reticulocytes, is an indication of bone marrow toxicity. The percentage of reticulocytes with micronuclei (%PCE with MN) was also calculated. An increase in %PCE with MN is a measure of clastogenicity.
After initial results were determined, the experiment was repeated using increased dose levels, until: (i) Micronucleus formation was seen; or (ii) Bone marrow toxicity was observed; or (iii) The lethal dose was reached; or (iv) A dose of 5 g/kg was administered.

For data set [5], the system named is p-selectin (GMP140). Briefly: GMP-140 (p-selectin) expression on platelets, flow cytometry with CD62. As to conditions: 100 μM compound, 5 Joules/cm^2, 5 days storage; FIGS. 21C-24C. Format: cell-based, human. The protocol:
To measure the effects of the present compounds and methods of decontamination on platelet function using these four indicators, four samples were prepared for each compound tested, two control samples and two containing compound. Three units of human platelets were obtained from the Sacramento Blood Center, Sacramento, Calif. These were each transferred under sterile conditions to 50 ml centrifuge tubes, then aliquots of each unit were transferred into a second set of 50 ml sterile centrifuge tubes. To each centrifuge tube containing platelet concentrate (PC), an aliquot of compound stock was added to reach a final concentration of 100 μM of compound. […] The samples were pipetted gently up and down to mix. Then aliquots (either 3 ml or 8 ml) of each sample was transferred to two sterile Teflon™ Medi-bags™ (American Fluoroseal Co., Silver Springs, Md.) (presently owned by The West Company, Lionville, Pa.). Samples were treated in one of two different sized bags, having either 3 ml or 8 ml capacity. […] For each compound tested, two control samples without compound were prepared by again removing aliquots of platelet concentrate (17 ml if using an 8 ml bag, […] if using a 3 ml bag) from the same one of the first set of 50 ml centrifuge tubes from which the compound sample was drawn, and dividing into Medibags, as before. One of each pair of Medibags containing a compound, and one of each pair of control Medibags, were illuminated for 5 Joules/cm^2 on the device described in Example 1, above. Then all experimental and control Medibags were placed on a platelet shaker for storage for 5 days. The same experiments were repeated several times to obtain more statistically meaningful data, as represented by “n”, the number of data points represented, in the graphs of FIGS. 21-24, discussed below.
On the technique in general: In flow cytometry, cells or beads pass a laser one at a time.

Setting [6] is: 16 μM, starting titer approximately 5 logs (Table 10).
Setting [7] is: 16 μM, starting titer approximately 5.4 logs (Table 11).
[8] abbreviates: 32 μM, starting titer approximately 5 logs (Table 10).
Where [9] appears, read: 32 μM, starting titer approximately 5.4 logs (Table 11).
Setting [10] is: 64 μM, starting titer approximately 5 logs (Table 10).
[11] abbreviates: 64 μM, starting titer approximately 5.4 logs (Table 11).

Turning to `Cc1oc2c(C)c3oc(=O)cc(C)c3cc2c1CN` [AMT, 4′-Aminomethyl-4,5′,8-trimethylpsoralen, reference compound], the “revertant colonies per plate” value in data set [1] (TA98 + S9, 0.1 μg/plate) was found to be 1; in data set [1] (TA98 + S9, 0.5 μg/plate), 3; in data set [1] (TA98 + S9, 1 μg/plate), 21; in data set [1] (TA98 + S9, 5 μg/plate) it was 232; in data set [1] (TA98 + S9, 10 μg/plate), 403; in data set [1] (TA98 + S9, 50 μg/plate), 620. Also, the “revertant colonies per plate” value in data set [1] (TA98 + S9, 100 μg/plate) came out at 745; in data set [1] (TA98 + S9, 250 μg/plate), 933; in data set [1] (TA98 − S9, 0.1 μg/plate) it was 3; in data set [1] (TA98 − S9, 0.5 μg/plate), 5; in data set [1] (TA98 − S9, 1 μg/plate), 5; in data set [1] (TA98 − S9, 5 μg/plate), 16. Moreover, the “revertant colonies per plate” value in data set [1] (TA98 − S9, 10 μg/plate) was 20; in data set [1] (TA98 − S9, 50 μg/plate), 69; in data set [1] (TA98 − S9, 100 μg/plate), 114; in data set [1] (TA98 − S9, 250 μg/plate), 112. Further, the “mutagenic response in the Ames assay (in words)” value (shortened to “mutagenic response”) in data set [2] is “showed frameshift mutagenicity at between 5 and 10 μg/plate in TA97a and TA98, at 5 μg/plate in TA1537 and at 1 μg/plate in TA1538; also recorded: no significant base-substitution mutations”. Moreover, in data set [3] (setting [6]), the “HIV Log Kill” value worked out at 1.4 log.
In the case of `Cc1oc2c(C)c3oc(=O)cc(C)c3cc2c1CNCCCCN` [Compound 6, 4′-(6-amino-2-aza)hexyl-4,5′,8-trimethylpsoralen], the “PCE/RBC (%)” value in data set [4] (30 mg/kg) is 3.61 ± 0.12%; in data set [4] (45 mg/kg), 3.79 ± 0.41%. Besides, in data set [4], the “bone marrow toxicity and micronucleus formation on dose escalation (in words)” value is given as “the acutely lethal dose was reached before there were any signs of bone marrow toxicity or micronucleus formation”. Besides, the “mutagenic response” value in data set [2] was “no base substitution mutagenicity; also recorded: frameshift response in TA98 in the presence of S9 at concentrations of 250 μg/plate and above”. In addition, the “GMP-140 expression, treated sample (PCD) against day 5 untreated control (in words)” value (“GMP-140 expression, treated sample (PCD)” below) in data set [5] is given as “little or no difference”. Also, the “HIV Log Kill” value in data set [3] (setting [6]) was 2.0 log; in data set [3] (setting [7]), 2.1 log; in data set [3] (setting [8]), 3.1 log; in data set [3] (setting [9]), 3.2 log; in data set [3] (setting [10]), >3.8 log; in data set [3] (setting [11]) it was >2.8 log.
As for `Cc1cc(=O)oc2c(C)c3oc(COCCN)c(C)c3cc12` [Compound 18, 5′-(4-amino-2-oxa)butyl-4,4′,8-trimethylpsoralen], the “revertant colonies per plate” value in data set [1] (TA98 + S9, 10 μg/plate) is recorded as 8; in data set [1] (TA98 + S9, 50 μg/plate), 6; in data set [1] (TA98 + S9, 100 μg/plate), 26; in data set [1] (TA98 + S9, 200 μg/plate), 42; in data set [1] (TA98 − S9, 10 μg/plate), 21; in data set [1] (TA98 − S9, 50 μg/plate), 303. Further, the “revertant colonies per plate” value in data set [1] (TA98 − S9, 100 μg/plate) was 390; in data set [1] (TA98 − S9, 200 μg/plate), 225. For the same compound, the “PCE/RBC (%)” value in data set [4] (3.75 mg/kg) is reported as 3.61 ± 1.14%; in data set [4] (7.5 mg/kg), 3.59 ± 0.33%; in data set [4] (20 mg/kg), 3.48 ± 0.79%. The “bone marrow toxicity and micronucleus formation on dose escalation (in words)” value in data set [4] is reported as “the acutely lethal dose was reached before there were any signs of bone marrow toxicity or micronucleus formation”. Besides, the “mutagenic response” value in data set [2] was “only a weak response at high concentrations in the presence of S9”. In addition, the “GMP-140 expression, treated sample (PCD)” value in data set [5] is “notable increase above the control”. In addition, the figures for the “HIV Log Kill” value in data set [3] (setting [7]), in data set [3] (setting [9]) and in data set [3] (setting [11]) were 1.0 log, 1.0 log and 3.1 log, respectively.
As for `Cc1oc2c(C)c3oc(=O)cc(C)c3cc2c1COCCN` [Compound 2, 4′-(4-amino-2-oxa)butyl-4,5′,8-trimethylpsoralen], the “revertant colonies per plate” value in data set [1] (TA98 + S9, 10 μg/plate) amounted to 24; in data set [1] (TA98 + S9, 50 μg/plate), 35; in data set [1] (TA98 + S9, 100 μg/plate), 53; in data set [1] (TA98 + S9, 250 μg/plate), 69; in data set [1] (TA98 + S9, 500 μg/plate), 63; in data set [1] (TA98 − S9, 10 μg/plate), 28. Besides, the “revertant colonies per plate” value in data set [1] (TA98 − S9, 50 μg/plate) was found to be 52; in data set [1] (TA98 − S9, 100 μg/plate), 39; in data set [1] (TA98 − S9, 250 μg/plate), 29; in data set [1] (TA98 − S9, 500 μg/plate), 6. For the same compound, the “bone marrow toxicity and micronucleus formation on dose escalation (in words)” value in data set [4] is “the acutely lethal dose was reached before there were any signs of bone marrow toxicity or micronucleus formation”. Further, in data set [2], the “mutagenic response” value was “weak frameshift mutagenicity in the presence of S9 in TA98 and TA1537”. In addition, the “GMP-140 expression, treated sample (PCD)” value in data set [5] was “little or no difference”. Besides, the “HIV Log Kill” value in data set [3] (setting [6]) was 1.4 log; in data set [3] (setting [8]), 3.8 log; in data set [3] (setting [10]), >4.5 log. In addition, in data set [3] (cell-free HIV, 64 μM of compound or higher for compounds 2 and 3), the “HIV inactivation compared with AMT (in words)” value was “significantly more active than AMT”.
